Measurements: ChEMBL document CHEMBL1201862, “PubChem BioAssay data set” (2004)
Activity calls are given as the source filed them.

Columns and labels:
Vero [1] = test: antiviral protection of cells from WNV – synthesized analogs, SAR follow-up (AID 2238); assay type: functional, cell-based; conditions: Chlorocebus sabaeus
Vero [2] = test: host cell viability loss, Vero E6 – synthesized analogs, cytotoxicity control for West Nile virus antiviral project, SAR follow-up (AID 2244); assay type: functional; conditions: Chlorocebus sabaeus
Vero [3] = test: Vero 76 cell viability after compound exposure – Vero 76 cells, synthesized analogs, cytotoxicity control for West Nile virus antiviral project, SAR follow-up (AID 2414); assay type: functional; conditions: Chlorocebus sabaeus
Coagulation factor XII = target: T1, Coagulation factor XII (Homo sapiens, UniProt P00748); test: activated coagulation factor XII inhibitor potency, concentration-effect curve, cell-free (AID 716); assay type: functional
T1 sequence (P00748 whole entry): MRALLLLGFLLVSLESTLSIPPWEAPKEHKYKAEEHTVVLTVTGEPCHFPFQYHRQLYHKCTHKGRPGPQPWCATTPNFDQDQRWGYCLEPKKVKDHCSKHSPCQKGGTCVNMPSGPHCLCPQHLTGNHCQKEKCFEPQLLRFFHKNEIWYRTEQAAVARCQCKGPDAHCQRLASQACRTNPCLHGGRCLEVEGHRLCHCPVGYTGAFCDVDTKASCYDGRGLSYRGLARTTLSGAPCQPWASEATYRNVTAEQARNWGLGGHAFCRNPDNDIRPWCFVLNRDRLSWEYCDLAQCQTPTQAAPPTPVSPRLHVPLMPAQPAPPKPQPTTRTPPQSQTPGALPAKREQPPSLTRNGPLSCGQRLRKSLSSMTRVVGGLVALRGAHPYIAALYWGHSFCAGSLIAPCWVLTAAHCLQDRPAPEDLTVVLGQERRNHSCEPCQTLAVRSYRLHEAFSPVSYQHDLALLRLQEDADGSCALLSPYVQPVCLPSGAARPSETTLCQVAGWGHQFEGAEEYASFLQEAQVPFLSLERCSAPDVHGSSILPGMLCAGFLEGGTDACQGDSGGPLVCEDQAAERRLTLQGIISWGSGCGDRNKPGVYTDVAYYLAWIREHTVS

INS1 = test: INS-1E survival protection against cytokine death – cell-based, luminescence, retest, dose response (AID 449756); assay type: functional; conditions: Rattus norvegicus;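 note: cell death triggered by IL-1 beta plus TNF-alpha plus IFN-gamma mixture; protective hits raise ATP signal compared with cytokine alone wells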
[4] = target: Nucleotide-binding oligomerization domain-containing protein 2 (Homo sapiens, UniProt Q9HC29); test: inhibition of NOD2-driven NF-kB reporter – cell-based, luminescence, uHTS, HEK293 (AID 1566); assay type: functional
Sequence of Nucleotide-binding oligomerization domain-containing protein 2 (Q9HC29 whole entry, the tested form may be a part): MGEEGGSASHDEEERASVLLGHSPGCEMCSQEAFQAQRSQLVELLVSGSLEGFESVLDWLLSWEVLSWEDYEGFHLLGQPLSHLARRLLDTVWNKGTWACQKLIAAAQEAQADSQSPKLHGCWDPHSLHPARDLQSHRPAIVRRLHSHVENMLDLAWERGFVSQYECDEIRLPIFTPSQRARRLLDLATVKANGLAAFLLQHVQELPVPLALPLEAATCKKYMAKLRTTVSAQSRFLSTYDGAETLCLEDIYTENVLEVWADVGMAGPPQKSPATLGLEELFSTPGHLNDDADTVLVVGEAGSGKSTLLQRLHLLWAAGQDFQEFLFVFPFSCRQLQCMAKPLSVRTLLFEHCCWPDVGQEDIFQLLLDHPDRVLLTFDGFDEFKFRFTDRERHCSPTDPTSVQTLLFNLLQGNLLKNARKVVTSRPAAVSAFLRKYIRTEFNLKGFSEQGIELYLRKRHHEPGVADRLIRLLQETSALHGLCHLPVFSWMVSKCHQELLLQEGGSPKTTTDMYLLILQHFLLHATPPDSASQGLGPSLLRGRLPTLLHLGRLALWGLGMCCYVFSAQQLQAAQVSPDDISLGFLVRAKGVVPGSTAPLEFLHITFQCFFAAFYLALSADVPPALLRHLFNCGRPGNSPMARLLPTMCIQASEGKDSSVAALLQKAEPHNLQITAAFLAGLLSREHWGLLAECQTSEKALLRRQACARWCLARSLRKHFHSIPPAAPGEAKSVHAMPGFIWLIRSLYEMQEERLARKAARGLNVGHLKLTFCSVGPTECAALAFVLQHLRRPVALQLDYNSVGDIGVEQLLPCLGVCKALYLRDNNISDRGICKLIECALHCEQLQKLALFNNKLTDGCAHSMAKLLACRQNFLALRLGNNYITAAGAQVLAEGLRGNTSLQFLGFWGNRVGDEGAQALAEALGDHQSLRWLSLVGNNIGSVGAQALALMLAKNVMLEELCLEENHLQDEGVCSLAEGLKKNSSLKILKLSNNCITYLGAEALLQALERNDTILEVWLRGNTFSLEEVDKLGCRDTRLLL

HEK293 [5] = test: inhibition of NOD1-driven NF-kB reporter – cell-based, luminescence, uHTS, primary screen (AID 1578); assay type: functional; conditions: Homo sapiens
[6] = Trypanosoma cruzi growth suppression in host cells – NIH3T3 host cells, beta-gal luminescence, confirmation (AID 2044); assay type: functional, cell-based;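 note: intracellular parasites grown in NIH/3T3 mouse fibroblasts as host cells; luminescent beta-galactosidase reporter signal from transgenic T. cruzi replicating inside host cells; inhibitors lower the luminescence signal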
[7] = NIH3T3 cell viability loss – ATP luminescence, mouse fibroblasts, counter-screen, dose response (AID 2010); assay type: functional, cell-based;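 note: cells exposed to compound for about 90 hours before reading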
[8] = Vero E6 cell cytotoxicity, dose response, cytotoxicity control for non-replicating M. tuberculosis project, secondary assay (AID 492998); assay type: functional, VeroE6; conditions: Vero C1008
[9] = Luminescence Cell-Based Dose Response HTS to Identify Inhibitors of 5'UTR Stem-Loop Driven Prion Protein mRNA Translation in H4 Neuroglioblastoma Cells. [Related pubchem assays: 1827 (Project Summary), 1813 (Primary HTS)]; assay type: functional
HEK293 [10] = test: cells; assay type: functional, cell-based; conditions: Homo sapiens
HEK293 [11] = test: cells; assay type: functional, cell-based; conditions: Homo sapiens; remark: listed apart in the source
[12] = alpha-synuclein stem-loop luciferase translation blockers – H4 neuroglioma cells, luminescence, confirmation (AID 1988); assay type: functional, cell-based
HEK293 [13] = test: NOD2 signaling inhibitors in MDP-stimulated cells, cell-based, uHTS, luminescence (AID 2001); assay type: functional; conditions: Homo sapiens
cells = assay type: functional
[14] = microbe, parasite or virus in culture; assay type: functional; conditions: Mycobacterium tuberculosis
[15] = THP-1 cell cytotoxicity, dose response, cytotoxicity control for non-replicating M. tuberculosis project (AID 489025); assay type: functional
[16] = luciferase reporter signal suppression in cells – H4 neuroglioma cells, luminescence, dose response (AID 1990); assay type: functional, cell-based
HEK293 [17] = test: cells; assay type: functional, cell-based; conditions: Homo sapiens; remark: listed apart in the source
[18] = HPDE-C7 pancreatic duct cell viability loss – fluorescence, HTS (AID 430); assay type: functional, cell-based; conditions: Homo sapiens
[19] = viability loss of HPDE-C7K cells – cell-based, fluorescence, HTS, primary screen (AID 431); assay type: functional; conditions: Homo sapiens
[20] = target: T2, Short transient receptor potential channel 4 (Mus musculus, UniProt Q9QUQ5); test: potentiation of DAMGO-evoked TRPC4 calcium signal – cell-based, HEK293 TRPC4/mu-opioid, Fluo-4 calcium, EC20 DAMGO, dose response (AID 434941); assay type: functional
T2 sequence (Q9QUQ5 whole entry): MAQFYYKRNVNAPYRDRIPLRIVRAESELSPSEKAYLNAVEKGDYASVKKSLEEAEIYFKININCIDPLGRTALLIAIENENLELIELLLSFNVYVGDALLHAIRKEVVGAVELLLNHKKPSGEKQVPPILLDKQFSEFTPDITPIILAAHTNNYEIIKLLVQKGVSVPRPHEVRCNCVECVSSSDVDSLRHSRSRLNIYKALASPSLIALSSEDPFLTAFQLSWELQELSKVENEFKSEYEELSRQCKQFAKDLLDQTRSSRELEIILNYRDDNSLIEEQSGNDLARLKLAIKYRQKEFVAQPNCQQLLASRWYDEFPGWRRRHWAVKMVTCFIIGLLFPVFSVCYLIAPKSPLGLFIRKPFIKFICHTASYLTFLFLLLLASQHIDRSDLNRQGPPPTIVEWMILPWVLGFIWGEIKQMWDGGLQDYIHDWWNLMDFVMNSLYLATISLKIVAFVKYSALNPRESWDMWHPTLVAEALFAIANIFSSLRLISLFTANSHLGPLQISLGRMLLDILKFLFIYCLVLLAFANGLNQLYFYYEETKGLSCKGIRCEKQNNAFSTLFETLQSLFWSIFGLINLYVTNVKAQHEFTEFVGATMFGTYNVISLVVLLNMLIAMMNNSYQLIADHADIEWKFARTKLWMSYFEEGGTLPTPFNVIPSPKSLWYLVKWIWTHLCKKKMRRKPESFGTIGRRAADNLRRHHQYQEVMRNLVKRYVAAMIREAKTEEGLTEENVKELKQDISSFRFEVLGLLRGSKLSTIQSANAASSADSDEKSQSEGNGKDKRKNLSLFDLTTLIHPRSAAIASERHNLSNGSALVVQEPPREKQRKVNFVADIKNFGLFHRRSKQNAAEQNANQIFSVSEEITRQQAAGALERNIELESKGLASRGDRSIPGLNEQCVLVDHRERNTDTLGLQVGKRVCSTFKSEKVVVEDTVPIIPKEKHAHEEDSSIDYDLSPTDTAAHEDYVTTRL

[21] = blockers of HIV-1 envelope-mediated cell-cell fusion – cherry-pick, dose response (AID 652057); assay type: functional, cell-based
[22] = target: T3, Ubiquitin-conjugating enzyme E2 N (Homo sapiens, UniProt P61088); assay type: functional
T3 sequence (P61088 whole entry): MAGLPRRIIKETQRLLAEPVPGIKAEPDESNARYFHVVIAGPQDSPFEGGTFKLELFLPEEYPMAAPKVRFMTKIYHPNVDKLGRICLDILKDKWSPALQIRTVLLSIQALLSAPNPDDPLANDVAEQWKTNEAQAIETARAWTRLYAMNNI

[23] = blockers of HIV-1 ZM109 envelope-driven cell-cell fusion – HeLa effector, CEM target cells, luciferase, cherry-pick, dose response (AID 652058); assay type: functional, cell-based;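 note: luciferase signal from HIV-1 Env mediated cell-cell fusion of effector and target cells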
BJ [24] = test: BJ-TERT-LT-ST fibroblast viability loss – cell-based, RAS-independent, luminescence, dose response (AID 1935); assay type: functional; conditions: Homo sapiens;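 note: BJ fibroblasts immortalized with TERT plus LT and ST oncogenes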
[25] = target: T4, Type-1 angiotensin II receptor (Homo sapiens, UniProt P30556); test: agonist activity at AGTR1 – cell-based, uHTS hits, selectivity assay for APJ receptor agonist project, dose response (AID 488865); assay type: functional;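 note: beta-arrestin recruitment to AT1 measured by enzyme fragment complementation luminescence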
T4 sequence (P30556 whole entry): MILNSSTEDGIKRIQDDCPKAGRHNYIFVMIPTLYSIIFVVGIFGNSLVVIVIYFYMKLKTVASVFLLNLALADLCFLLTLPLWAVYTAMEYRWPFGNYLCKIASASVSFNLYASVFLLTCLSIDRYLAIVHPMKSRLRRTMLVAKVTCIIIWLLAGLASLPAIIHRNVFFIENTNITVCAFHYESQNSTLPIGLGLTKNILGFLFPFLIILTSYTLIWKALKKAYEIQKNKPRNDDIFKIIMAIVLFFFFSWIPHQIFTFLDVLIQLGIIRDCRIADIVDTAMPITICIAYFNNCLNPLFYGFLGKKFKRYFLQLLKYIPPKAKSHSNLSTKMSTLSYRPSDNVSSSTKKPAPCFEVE

[26] = DRD fibroblast viability loss – cell-based, non-viral oncogenic, luminescence, dose response (AID 1934); assay type: functional; conditions: Homo sapiens
[27] = target: T3, Ubiquitin-conjugating enzyme E2 N; assay type: functional; remark: listed apart in the source
[28] = viability loss in CEM21 cells – cell-based, CellTiter-Glo luminescence, cherry-picked, cytotoxicity control for viral fusion inhibitor project, dose response (AID 652042); assay type: functional;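 note: potency for signal decrease meaning cytotoxicity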
BJ [29] = test: cells; assay type: functional, cell-based; conditions: Homo sapiens
BJ [30] = test: BJ-TERT fibroblast viability loss – cell-based, RAS-independent, luminescence, dose response (AID 1933); assay type: functional; conditions: Homo sapiens
[31] = off-target signal loss in HeLa-CEM21 co-culture – HeLa F-luc CTL cells, cherry-picked, counter-screen for HIV-1 Env fusion inhibitor project, dose response (AID 652040); assay type: functional, cell-based;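 note: potency for signal decrease marking cytotoxic or nonspecific inhibition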
[32] = HIV-1 AD8 envelope cell-cell fusion blockers – cherry-pick, dose response (AID 652062); assay type: functional, cell-based;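 note: luciferase signal from cell-cell fusion driven by HIV-1 clade B AD8 Env; potency is for inhibitors of fusion seen as a drop in luminescence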
Bcl-2-related protein A1 = target: T5, Bcl-2-related protein A1 (Mus musculus, UniProt Q07440); assay type: functional;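 note: confirmatory dose–response counterscreen on Bfl-1, used to check hits from a UBC13 polyubiquitin inhibitor campaign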
T5 sequence (Q07440 whole entry): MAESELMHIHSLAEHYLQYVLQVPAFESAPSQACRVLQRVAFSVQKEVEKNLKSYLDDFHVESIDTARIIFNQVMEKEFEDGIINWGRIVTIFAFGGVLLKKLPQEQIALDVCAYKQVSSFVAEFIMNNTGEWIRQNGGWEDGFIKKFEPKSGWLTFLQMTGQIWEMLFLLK

O=C(CSc1nc2ccccc2c(=O)n1-c1ccccc1)Nc1ccc2c(c1)CCC2
active: IC50 (Vero [1]) 15.5 µM | CC50 (Vero [2]) > 40 µM | CC50 (Vero [3]) > 66.6 µM

Cc1c(C(=O)OCCOC(C)C)[nH]c2c1C(=O)CC(C)(C)C2
inactive: IC50 (Coagulation factor XII) > 50 µM

Cc1cc(N/N=C/c2ccccc2[N+](=O)[O-])nc(-n2nc(C)cc2C)n1
active: AC50 (INS1) 2.77 µM | EC50 (HEK293 [5]) 6.21 µM | EC50 [6] 2.26 µM | EC50 [7] 7.48 µM | CC50 [8] 6.96 µM | EC50 [9] 13.1 µM | IC50 (HEK293 [11]) 15.6 µM | IC50 (cells) 0.6 µM | CC50 [14] 15.5 µM | CC50 [15] 4.01 µM | EC50 [16] 13.3 µM
> 120 µM (not active): EC50 [12]
inactive: EC50 [4] > 20 µM | IC50 (HEK293 [10]) > 20 µM | IC50 (HEK293 [13]) 6.54 µM | IC50 (HEK293 [17]) > 20 µM

CCCC1(c2ccccc2)NC(=O)N(CC(=O)c2[nH]c(C)c(C(=O)OCC)c2C)C1=O (stereo not drawn)
> 20 µM (not active): EC50 [18] | EC50 [19]
active: EC50 [20] 2.66 µM

COc1ccc2sc(N(CCCN(C)C)C(=O)c3ccc(S(=O)(=O)N4CCc5ccccc5C4)cc3)nc2c1
inactive: EC50 [25] > 100 µM | IC50 (Bcl-2-related protein A1) > 20 µM
active: AC50 [21] 6.44 µM | EC50 [6] 0.228 µM | EC50 [7] 5.73 µM | IC50 [22] 8.54 µM | AC50 [23] 9.11 µM | IC50 [27] 8.44 µM | AC50 [28] 3.7 µM | EC50 (BJ [29]) 10 µM | AC50 [31] 8.3 µM | AC50 [32] 6.84 µM
inconclusive: EC50 (BJ [24]) 4.5 µM | EC50 [26] 5.14 µM | EC50 (BJ [30]) 2.75 µM
